From patent EP4537820A1, “COMPOUND AND COMBINATIONS COMPRISING SAID COMPOUND TO IMPROVE IMMUNE RESPONSE” (Institut Gustave-Roussy, priority 2023, dated 2025)

How the values were obtained:
[1] = biological target: T1, 20S-REGγ proteasome (Homo sapiens, UniProt P61289); test: Proteasome Activity Assay with fluorogenic AMC substrates, in presence of REGγ; type: biochemical; settings: 0.5nM human 20S + 12.5nM human REGγ
T1 construct: made in house
Protocol: Proteasome Activity Assay - The activity of the 20S and 20S-REGγ proteasomes was followed by fluorescence using the Bz-VGR-AMC (#BML-BW9375-0005, Enzo Life Sciences) substrate at 50µM for tryspin-like activity, the Suc-LLVY-AMC (#BML-P802-0005, Enzo Life Sciences) substrate at 100µM for the chemotrypsin-like activity and the Z-LLE-AMC (#BML-ZW9345-0005, Enzo Life Sciences) substrate at 100µM for the caspase-like activity. Substrates were incubated with 0,5nM of human 20S ((#E-360-050, Biotechne) and 12,5nM of human REGγ or 2nM of human REGαβ with or without compounds at different concentrations. Purified human REGγ and REGGαβ were generously provided by Julien Marcoux and Marie-Pierre Bousquet-Dubouch. Human REGγ and REGαβ were purified according to Le Feuvre et al., 2009 from plasmids kindly provided by Olivier Coux. The activity assay was performed in 96 well plates in a final volume of 80µL. Plates were read every minute for 90 minutes with a FLUOstar plate reader (BMG Labtech). To detect fluorescence, the excitation wavelength was set to 355nm and emission wavelength at 460nm.
The activity of the 20S and 20S-REGγ proteasomes was followed by fluorescence using the Bz-VGR-AMC (#BML-BW9375-0005, Enzo Life Sciences) substrate at 50µM for trypsin-like activity, the Suc-LLVY-AMC (#BML-P802-0005, Enzo Life Sciences) substrate at 100µM for the chemotrypsin-like activity and the Z-LLE-AMC (#BML-ZW9345-0005, Enzo Life Sciences) substrate at 100µM for the caspase-like activity. […]

[2] = system: MCA205-Glob-SL8-intron cells; test: MHC-I expression, antigen presentation and PD-L1 surface expression by flow cytometry; type: cell-based, mouse; settings: 24 hours
Protocol: 2×10^5 of MCA205-Glob-SL8-intron cells were plated in 6-well plates and incubated overnight. The next day cells were treated with different concentrations of drugs for 24h. After treatment, cells were harvested with trypsin before being stained with Zombie Aqua (#423102, Biolegend) and antibodies presented in Table 1 following the protocol provided by the supplier. Samples were acquired on a FACS LSRFortessa X20 (BD Biosciences) and data was analysed with FlowJo (V10) software (TreeStar, Inc.). Table 1: Panels of antibodies for the study of surface expression of MHC-I molecules and SIINFEKL presentation in MCA205-Glob-SL8-intron.
Inventors previously reported a novel and unexpected role of the REGγ-20S complex in the degradation of MHC-I peptides in cancer. In order to elucidate the potential impact of compound 58 on the REGγ-20S complex's modulation of antigenic peptide degradation, they treated mouse MCA205 cells stably expressing the globin-SL8-intron construct with increasing concentrations of compound 58 for 24 hours.
Additionally, they explored the impact of compound 58 on the expression of MHC-I on the surface of MCA205 cells stably expressing the globin-SL8-intron construct. After treating these cells with varying doses of compound 58 for 24 hours, they assessed the levels of murine MHC-I H2-K^b and H2-D^b using flow cytometry. The percentage of cells labeled positively for H2-K^b and H2-D^b in the treated conditions was compared to that in the DMSO control condition.
Furthermore, inventors investigated whether compound 58 had the capability to alter PD-L1 expression on the cell surface of treated tumor cells. To examine this, they exposed MCA205 cells stably expressing the globin-SL8-intron construct to varying concentrations of compound 58 for 24 hours and subsequently assessed PD-L1 expression levels via flow cytometry.

[3] = 5µm to 25 µM, compared to DMSO control

T1 sequence (P61289 whole entry): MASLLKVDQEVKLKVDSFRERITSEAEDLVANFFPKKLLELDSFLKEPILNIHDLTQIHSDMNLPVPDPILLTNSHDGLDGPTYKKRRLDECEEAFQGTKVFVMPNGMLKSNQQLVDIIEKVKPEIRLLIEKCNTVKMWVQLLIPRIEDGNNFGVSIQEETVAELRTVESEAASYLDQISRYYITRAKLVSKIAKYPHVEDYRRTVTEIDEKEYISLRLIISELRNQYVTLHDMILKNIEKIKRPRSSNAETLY

concentration at which inhibition of trypsin-like activity starts ([1]; Bz-VGR-AMC 50µM, stronger effect at 100 µM): 50 µM
concentration at which chymotrypsin-like activity is inhibited ([1]; Suc-LLVY-AMC 100µM, inhibited only at this concentration): 100 µM
concentration at which inhibition of caspase-like activity starts ([1]; Z-LLE-AMC 100µM, stronger effect at 100 µM): 50 µM
SMILES: Cc1ccc(N=Nc2ccc(C)cc2NC(=O)Nc2ccccc2F)cc1 [compound 58]
presentation of the SIINFEKL peptide (Kb-SIINFEKL complexes on the cell surface) ([2]; 25µM, 25-D1.16 antibody, compared to untreated cells): significant increase
expression of H2-D^b molecules on the cell surface [2, 3]: dose-dependent increase
expression of H2-K^b molecules on the cell surface [2, 3]: dose-dependent increase
PD-L1 expression on the cell surface ([2]; varying concentrations, dose-dependent manner): significantly increased PD-L1 expression
